Converted amounts (≈) assume the structure as drawn. Where a SMILES comes first, the peptide text is derived from it. Bridges are numbered along the chain shown (N, C = ends). [ ]: non-standard residue; d: D form. The star is where a group is joined. Octanoyl = CCCCCCCC(=O)*; Dab = NCC[C@H](N)C(=O)O; Abu = CC[C@H](N)C(=O)O
What was measured:
Escherichia coli [1] = test: Antimicrobial activity against Escherichia coli; type: functional
Pseudomonas aeruginosa = test: Antimicrobial activity against Pseudomonas aeruginosa; type: functional, organism-based
Klebsiella pneumoniae = test: Antimicrobial activity against Klebsiella pneumoniae; type: functional
Escherichia coli [2] = test: Antimicrobial activity against Escherichia coli at 10 ug/mL; type: functional

Row | SMILES | MIC (Escherichia coli [1]) [µg/mL] | MIC (Pseudomonas aeruginosa) [µg/mL] | MIC (Klebsiella pneumoniae) [µg/mL] | GI (Escherichia coli [2]) [square millimeter]
1 | CC(C)C[C@@H]1NC(=O)[C@@H](Cc2ccccc2)NC(=O)[C@H](CCN)NC(=O)[C@@H](NC(=O)[C@H](CCN)NC(=O)[C@H](NC(=O)[C@H](C)NC(=O)[C@@H](C)NC(=O)[C@H](C)N)[C@@H](C)O)CCNC(=O)[C@@H]([C@@H](C)O)NC(=O)[C@H](CCN)NC(=O)[C@H](CCN)NC1=O | ≥ 500 | ≥ 500 | ≥ 500 | –
2 | CC(C)C[C@@H]1NC(=O)[C@@H](Cc2ccccc2)NC(=O)[C@H](CCN)NC(=O)[C@@H](NC(=O)[C@H](CCN)NC(=O)[C@H](NC(=O)OCC2c3ccccc3-c3ccccc32)[C@@H](C)O)CCNC(=O)[C@@H]([C@@H](C)O)NC(=O)[C@H](CCN)NC(=O)[C@H](CCN)NC1=O | 0.8 (≈ 0.675 µM) | 8 (≈ 6.75 µM) | 62 (≈ 52.3 µM) | –
3 | CC(C)C[C@@H]1NC(=O)[C@@H](Cc2ccccc2)NC(=O)[C@H](CCN)NC(=O)[C@@H](NC(=O)[C@H](CCN)NC(=O)[C@H](NC(=O)[C@H](C)NC(=O)[C@@H](C)NC(=O)[C@H](C)NC(=O)[C@H](C)NC(=O)[C@@H](C)NC(=O)[C@H](C)N)[C@@H](C)O)CCNC(=O)[C@@H]([C@@H](C)O)NC(=O)[C@H](CCN)NC(=O)[C@H](CCN)NC1=O | ≥ 500 | ≥ 500 | ≥ 500 | –
4 | CC(C)C[C@@H]1NC(=O)[C@@H](Cc2ccccc2)NC(=O)[C@H](CCN)NC(=O)[C@@H](NC(=O)[C@H](CCN)NC(=O)[C@H](NC(=O)[C@H](CCN)NC(=O)OCC2c3ccccc3-c3ccccc32)[C@@H](C)O)CCNC(=O)[C@@H]([C@@H](C)O)NC(=O)[C@H](CCN)NC(=O)[C@H](CCN)NC1=O | 8 (≈ 6.22 µM) | 4 (≈ 3.11 µM) | 16 (≈ 12.4 µM) | –
5 | CCCCCCCCCC(=O)N[C@H](C(=O)N[C@H](CO)C(=O)N[C@H]1CCNC(=O)[C@H]([C@@H](C)O)NC(=O)[C@H](CCN)NC(=O)[C@H](CCN)NC(=O)[C@H](CC(C)C)NC(=O)[C@@H](Cc2ccccc2)NC(=O)[C@H](CCN)NC1=O)[C@@H](C)O | – | – | – | 130
6 | CCCCCCCC(=O)N[C@H](C(=O)N[C@H](CO)C(=O)N[C@H]1CCNC(=O)[C@H]([C@@H](C)O)NC(=O)[C@H](CCN)NC(=O)[C@H](CCN)NC(=O)[C@H]([C@H](C)O)NC(=O)[C@@H](Cc2ccccc2)NC(=O)[C@H](CCN)NC1=O)[C@@H](C)O | – | – | – | 172
7 | CCCCCCC(=O)N[C@H](C(=O)N[C@H](CO)C(=O)N[C@H]1CCNC(=O)[C@H]([C@@H](C)O)NC(=O)[C@H](CCN)NC(=O)[C@H](CCN)NC(=O)[C@H](CC(C)C)NC(=O)[C@@H](Cc2ccccc2)NC(=O)[C@H](CCN)NC1=O)[C@@H](C)O | – | – | – | 80
8 | CCCCCCC(=O)N[C@H](C(=O)N[C@H](CO)C(=O)N[C@H]1CCNC(=O)[C@H]([C@@H](C)O)NC(=O)[C@H](CCN)NC(=O)[C@H](CCN)NC(=O)[C@H]([C@H](C)O)NC(=O)[C@@H](Cc2ccccc2)NC(=O)[C@H](CCN)NC1=O)[C@@H](C)O | – | – | – | 200
9 | CCCCCCCC(=O)N[C@H](C(=O)N[C@H](C)C(=O)N[C@H]1CCNC(=O)[C@H]([C@@H](C)O)NC(=O)[C@H](CCN)NC(=O)[C@H](CCN)NC(=O)[C@H]([C@H](C)O)NC(=O)[C@@H](Cc2ccccc2)NC(=O)[C@H](CCN)NC1=O)[C@@H](C)O | – | – | – | 60
10 | CCCCCCCC(=O)N[C@H](C(=O)N[C@@H](CC)C(=O)N[C@H]1CCNC(=O)[C@H]([C@@H](C)O)NC(=O)[C@H](CCN)NC(=O)[C@H](CCN)NC(=O)[C@H](CC(C)C)NC(=O)[C@@H](Cc2ccccc2)NC(=O)[C@H](CCN)NC1=O)[C@@H](C)O | – | – | – | 32
11 | CCCCCCCC(=O)N[C@H](C(=O)N[C@@H](CCN)C(=O)N[C@H]1CCNC(=O)[C@H]([C@@H](C)O)NC(=O)[C@H](CCN)NC(=O)[C@H](CC)NC(=O)[C@H](CC(C)C)NC(=O)[C@@H](Cc2ccccc2)NC(=O)[C@H](CCN)NC1=O)[C@@H](C)O | – | – | – | 60
12 | CCCCCCCC(=O)N[C@H](C(=O)N[C@@H](CCN)C(=O)N[C@H]1CCNC(=O)[C@H]([C@@H](C)O)NC(=O)[C@H](CCN)NC(=O)[C@H](CCN)NC(=O)[C@H](CC(C)C)NC(=O)[C@H](Cc2ccccc2)NC(=O)[C@H](CCN)NC1=O)[C@@H](C)O | – | – | – | 0
13 | CCCCCCCC(=O)N[C@H](C(=O)N[C@@H](CCC(N)=O)C(=O)N[C@H]1CCNC(=O)[C@H]([C@@H](C)O)NC(=O)[C@H](CCN)NC(=O)[C@H](CCN)NC(=O)[C@H](CC(C)C)NC(=O)[C@@H](Cc2ccccc2)NC(=O)[C@H](CCN)NC1=O)[C@@H](C)O | – | – | – | 10
14 | CCC(C)CCCCC(=O)N[C@@H](CCNCc1ccccc1)C(=O)N[C@H](C(=O)N[C@@H](CCN)C(=O)N[C@H]1CCNC(=O)[C@H]([C@@H](C)O)NC(=O)[C@H](CCNCc2ccccc2)NC(=O)[C@H](CCNCc2ccccc2)NC(=O)[C@H](CC(C)C)NC(=O)[C@@H](Cc2ccccc2)NC(=O)[C@H](CCNCc2ccccc2)NC1=O)[C@@H](C)O (stereo partly drawn) | 5 (≈ 3.2 µM) | – | 1.3 (≈ 0.831 µM) | –
15 | CCCCCCCC(=O)N[C@@H](CCN)C(=O)N[C@@H](C(=O)N[C@@H](CCN)C(=O)N[C@H]1CCNC(=O)[C@H]([C@@H](C)O)NC(=O)[C@H](CCNCCCCCC(C)CC)NC(=O)[C@H](CCN)NC(=O)[C@H](CC(C)C)NC(=O)[C@@H](Cc2ccccc2)NC(=O)[C@H](CCN)NC1=O)[C@@H](C)O (stereo partly drawn) | 3.1 (≈ 2.36 µM) | 2.18 (≈ 1.66 µM) | 0.7 (≈ 0.532 µM) | –
16 | CCCCCCCC(=O)N[C@@H](CCN)C(=O)N[C@H](C(=O)N[C@@H](CCN)C(=O)N[C@H]1CCNC(=O)[C@H]([C@@H](C)O)NC(=O)[C@H](CCNC(=O)[C@@H](N)Cc2ccc(O)cc2)NC(=O)[C@H](CCN)NC(=O)[C@H](CC(C)C)NC(=O)[C@@H](Cc2ccccc2)NC(=O)[C@H](CCN)NC1=O)[C@@H](C)O | 0.175 (≈ 0.129 µM) | 0.073 (≈ 0.054 µM) | 2.2 (≈ 1.63 µM) | –
17 | CCCCCCCC(=O)N[C@@H](CCN)C(=O)N[C@H](C(=O)N[C@@H](CCN)C(=O)N[C@H]1CCNC(=O)[C@H]([C@@H](C)O)NC(=O)[C@H](CCNC(=O)[C@H](N)CCSC)NC(=O)[C@H](CCN)NC(=O)[C@H](CC(C)C)NC(=O)[C@@H](Cc2ccccc2)NC(=O)[C@H](CCN)NC1=O)[C@@H](C)O | 0.77 (≈ 0.583 µM) | 0.416 (≈ 0.315 µM) | 5.65 (≈ 4.28 µM) | –
18 | CCCCCCCC(=O)N[C@@H](CCN)C(=O)N[C@H](C(=O)N[C@@H](CCN)C(=O)N[C@H]1CCNC(=O)[C@H]([C@@H](C)O)NC(=O)[C@H](CCNC(=O)[C@@H](N)CS)NC(=O)[C@H](CCN)NC(=O)[C@H](CC(C)C)NC(=O)[C@@H](Cc2ccccc2)NC(=O)[C@H](CCN)NC1=O)[C@@H](C)O | 1.68 (≈ 1.3 µM) | 2.82 (≈ 2.18 µM) | 11.3 (≈ 8.75 µM) | –
19 | CCCCCCCC(=O)N[C@H](C(=O)N[C@@H](CO)C(=O)N[C@H]1CCNC(=O)[C@H]([C@@H](C)O)NC(=O)[C@H](CCN)NC(=O)[C@H](CCN)NC(=O)[C@H](CC(C)C)NC(=O)[C@@H](Cc2ccccc2)NC(=O)[C@H](CCN)NC1=O)[C@@H](C)O (Octanoyl-TS[Dab][Dab][dF]L[Dab][Dab]T; lactam 3-C) | – | – | – | 171
20 | CCCCCCCC(=O)N[C@H](C(=O)N[C@@H](CC)C(=O)N[C@H]1CCNC(=O)[C@H]([C@@H](C)O)NC(=O)[C@H](CCN)NC(=O)[C@H](CCN)NC(=O)[C@H](CC(C)C)NC(=O)[C@H](CC(C)C)NC(=O)[C@H](CCN)NC1=O)[C@@H](C)O (Octanoyl-T[Abu][Dab][Dab]LL[Dab][Dab]T; lactam 3-C) | – | – | – | 0
21 | CCCCCCCC(=O)N[C@H](C(=O)N[C@@H](CC)C(=O)N[C@H]1CCNC(=O)[C@H](CC(C)C)NC(=O)[C@H](CCN)NC(=O)[C@H](CCN)NC(=O)[C@H](CC(C)C)NC(=O)[C@@H](Cc2ccccc2)NC(=O)[C@H](CCN)NC1=O)[C@@H](C)O (Octanoyl-T[Abu][Dab][Dab][dF]L[Dab][Dab]L; lactam 3-C) | – | – | – | 50
22 | CCCCCCCC(=O)N[C@@H](CCN)C(=O)N[C@H](C(=O)N[C@@H](CCN)C(=O)N[C@H]1CCNC(=O)[C@H]([C@@H](C)O)NC(=O)[C@H](CCNC(=O)CCl)NC(=O)[C@H](CCN)NC(=O)[C@H](CC(C)C)NC(=O)[C@@H](Cc2ccccc2)NC(=O)[C@H](CCN)NC1=O)[C@@H](C)O [CHLOROACETYL DAB9 POLYMYXIN B] | 0.454 (≈ 0.359 µM) | 0.085 (≈ 0.0671 µM) | 9.5 (≈ 7.5 µM) | –
23 | CCCCCCCC(=O)N[C@@H](CCN)C(=O)N[C@H](C(=O)N[C@@H](CCN)C(=O)N[C@H]1CCNC(=O)[C@H]([C@@H](C)O)NC(=O)[C@H](CCNC(=O)C(Cl)Cl)NC(=O)[C@H](CCN)NC(=O)[C@H](CC(C)C)NC(=O)[C@@H](Cc2ccccc2)NC(=O)[C@H](CCN)NC1=O)[C@@H](C)O [DICHLOROACETYL DAB9 POLYMYXIN B] | 1.54 (≈ 1.18 µM) | 0.995 (≈ 0.765 µM) | 0.82 (≈ 0.631 µM) | –
24 | CCCCCCCC(=O)N[C@@H](CCN)C(=O)N[C@H](C(=O)N[C@@H](CCN)C(=O)N[C@H]1CCNC(=O)[C@H]([C@@H](C)O)NC(=O)[C@H](CCNC(C)C)NC(=O)[C@H](CCN)NC(=O)[C@H](CC(C)C)NC(=O)[C@@H](Cc2ccccc2)NC(=O)[C@H](CCN)NC1=O)[C@@H](C)O [DIMETHYL DAB9 POLYMYXIN B] | 0.537 (≈ 0.436 µM) | 0.456 (≈ 0.37 µM) | 16 (≈ 13 µM) | –
25 | CCCCCCCC(=O)N[C@@H](CCN)C(=O)N[C@H](C(=O)N[C@@H](CCN)C(=O)N[C@H]1CCNC(=O)[C@H]([C@@H](C)O)NC(=O)[C@H](CCNC(=O)CO)NC(=O)[C@H](CCN)NC(=O)[C@H](CC(C)C)NC(=O)[C@@H](Cc2ccccc2)NC(=O)[C@H](CCN)NC1=O)[C@@H](C)O [HYDROXYACETYL DAB9 POLYMYXIN B] | 1.54 (≈ 1.23 µM) | 1.53 (≈ 1.23 µM) | 22.6 (≈ 18.1 µM) | –
26 | CCCCCCCC(=O)N[C@@H](CCN)C(=O)N[C@H](C(=O)N[C@@H](CCN)C(=O)N[C@H]1CCNC(=O)[C@H]([C@@H](C)O)NC(=O)[C@H](CCNC(=O)C(N)CCCN)NC(=O)[C@H](CCN)NC(=O)[C@H](CC(C)C)NC(=O)[C@@H](Cc2ccccc2)NC(=O)[C@H](CCN)NC1=O)[C@@H](C)O (stereo partly drawn) [L-LYSYL DAB9 POLYMYXIN B] | 0.173 (≈ 0.133 µM) | 0.032 (≈ 0.0245 µM) | 2.8 (≈ 2.15 µM) | –

From ChEMBL document CHEMBL1156251, “Structure--activity relationships of polymyxin antibiotics” (J Med Chem, 2010)
